Tests used:
[1] = tested on: antibodies in sera from SARS patients (sera 1a, 1b, 2, 6, 37, 62, London, SARS-yellow, SARS-green); type: binding, human; set-up: Binding of serum 6 to linear peptides of protein X1 of SARS-CoV Urbani / Binding of serum 37 to linear peptides of protein X1 of SARS-CoV Urbani / Binding of serum 6 to looped/cyclic peptide (PEPSCAN-ELISA) / Binding of serum 37 to looped/cyclic peptide (PEPSCAN-ELISA) / Binding of serum 37 to looped/cyclic peptides of protein X1 of SARS-CoV Urbani / Binding of serum 6 to linear peptides of protein X2 / Binding of serum 37 to linear peptides of protein X2 / Binding of serum 37 to looped/cyclic peptides of protein X2 of SARS-CoV Urbani / Binding of serum 6 to linear peptides of protein M of SARS-CoV Urbani / Binding of serum 37 to linear peptides of protein M of SARS-CoV Urbani / Binding of serum 6 to looped/cyclic peptides of protein M of SARS-CoV Urbani / Binding of serum 37 to looped/cyclic peptides of protein M of SARS-CoV Urbani / Binding of serum 6 to linear peptides of protein X3 of SARS-CoV Urbani / Binding of serum 37 to linear peptides of protein X3 of SARS-CoV Urbani / Binding of serum 37 to looped/cyclic peptides of protein X3 of SARS-CoV Urbani / Binding of serum 6 to linear peptides of protein X4 of SARS-CoV Urbani / Binding of serum 37 to linear peptides of protein X4 of SARS-CoV Urbani / Binding of serum 37 to looped/cyclic peptides of protein X4 of SARS-CoV Urbani / Binding of serum 6 to linear peptides of protein X5 of SARS-CoV Urbani / Binding of serum 37 to linear peptides of protein X5 of SARS-CoV Urbani / Binding of serum 37 to looped/cyclic peptides of protein X5 of SARS-CoV Urbani / Binding of serum 6 to linear peptides of protein N of SARS-CoV Urbani / Binding of serum 37 to linear peptides of protein N of SARS-CoV Urbani / Binding of serum 6 to linear peptide (PEPSCAN-ELISA) / Binding of serum 1a to looped/cyclic peptides of protein N of SARS-CoV Urbani / Binding of serum 1b to looped/cyclic peptides of protein N of SARS-CoV Urbani / Binding of serum 2 to looped/cyclic peptides of protein N of SARS-CoV Urbani / Binding of serum 6 to looped/cyclic peptides of protein N of SARS-CoV Urbani / Binding of serum 37 to looped/cyclic peptides of protein N of SARS-CoV Urbani / Binding of serum 62 to looped/cyclic peptides of protein N of SARS-CoV Urbani / Binding of serum London to looped/cyclic peptides of protein N of SARS-CoV Urbani / Binding of serum SARS-green to looped/cyclic peptides of protein N of SARS-CoV Urbani: unit not given here
[2] = tested on: recombinant human anti-SARS-CoV antibody 03-018; type: binding; set-up: Binding of antibody 03-018 to linear peptides of the N protein of SARS-CoV Urbani / Binding of antibody 03-018 to looped/cyclic peptides of the N protein of SARS-CoV Urbani: unit not given here
[3] = tested on: rabbit serum obtained by immunizing a rabbit with the SARS-CoV strain Frankfurt 1; type: binding; set-up: Binding of a rabbit serum to linear peptides / Binding of a rabbit serum to looped peptides / Rabbit serum linear peptides / Rabbit serum looped peptides / Binding of a rabbit serum to linear peptides of protein N of SARS-CoV Urbani (Rabbit serum linear peptides) / Binding of a rabbit serum to looped/cyclic peptides of protein N of SARS-CoV Urbani (Rabbit serum looped peptides): unit not given here
[4] = tested on: control sera (pooled serum of ten healthy LUMC hospital workers; commercial negative donor pooled serum from the Dutch bloodbank); type: binding, human; set-up: Binding of Control serum LUMC to linear peptides / Binding of Control serum Blood-bank to linear peptides / Binding of Control serum LUMC to looped peptides / Binding of Control Serum Blood-Bank to Looped peptides / Binding of Control serum LUMC to linear peptides of the protein M of SARS-CoV Urbani / Binding of Control serum Blood-bank to linear peptides of the protein M of SARS-CoV Urbani / Binding of Control serum LUMC to looped peptides of the protein M of SARS-CoV Urbani / Binding of Control Serum Blood-Bank to Looped peptides of the protein M of SARS-CoV Urbani: unit not given here

Sequence	Binding of serum 1a to linear peptides of protein N of SARS-CoV Urbani [1]	Binding of serum 1a to looped/cyclic peptides of protein N of SARS-CoV Urbani [1]	Binding of serum 1b to linear peptides of protein N of SARS-CoV Urbani [1]	Binding of serum 1b to looped/cyclic peptides of protein N of SARS-CoV Urbani [1]	Binding of serum 2 to linear peptides of protein N of SARS-CoV Urbani [1]	Binding of serum 2 to looped/cyclic peptides of protein N of SARS-CoV Urbani [1]	Binding of serum 6 to linear peptides of protein N of SARS-CoV Urbani [1]	Binding of serum 6 to looped/cyclic peptides of protein N of SARS-CoV Urbani [1]	Binding of serum 37 to linear peptides of protein N of SARS-CoV Urbani [1]	Binding of serum 37 to looped/cyclic peptides of protein N of SARS-CoV Urbani [1]	Binding of serum 62 to linear peptides of protein N of SARS-CoV Urbani [1]	Binding of serum 62 to looped/cyclic peptides of protein N of SARS-CoV Urbani [1]	Binding of serum London to linear peptides of protein N of SARS-CoV Urbani [1]	Binding of serum London to looped/cyclic peptides of protein N of SARS-CoV Urbani [1]	Binding of serum SARS-green to linear peptides of protein N of SARS-CoV Urbani [1]	Binding of serum SARS-green to looped/cyclic peptides of protein N of SARS-CoV Urbani [1]	Binding of serum SARS-yellow to linear peptides of protein N of SARS-CoV Urbani [1]	Binding of serum SARS-yellow to looped/cyclic peptides of protein N of SARS-CoV Urbani [1]	Binding of antibody 03-018 to linear peptides of the N protein of SARS-CoV Urbani [2]	Binding of antibody 03-018 to looped/cyclic peptides of the N protein of SARS-CoV Urbani [2]	other results
ALTQHGKEELRFPRG	0.3	0.2	0.2	0.1	0.3	0.2	0.2	0.1	0.9	0.5	0.8	0.2	0.5	0.3	0.6	0.1	0.6	0.3	0.2	0.2	Binding of a rabbit serum to linear peptides of protein N of SARS-CoV Urbani (Rabbit serum linear peptides) [3]: 0.2; Binding of a rabbit serum to looped/cyclic peptides of protein N of SARS-CoV Urbani (Rabbit serum looped peptides) [3]: 0.3; Binding of Control Serum Blood-Bank to Looped peptides [4]: 0.4; Binding of Control serum Blood-bank to linear peptides [4]: 0.9; Binding of Control serum LUMC to linear peptides [4]: 0.7; Binding of Control serum LUMC to looped peptides [4]: 0.4
ANKEGIVWVATEGAL	0.2	0.4	0.1	0.3	0.2	0.3	0.2	0.2	0.8	0.6	0.7	0.5	0.4	0.3	0.4	0.4	0.7	0.6	0.1	0.2	Binding of a rabbit serum to linear peptides of protein N of SARS-CoV Urbani (Rabbit serum linear peptides) [3]: 0.1; Binding of a rabbit serum to looped/cyclic peptides of protein N of SARS-CoV Urbani (Rabbit serum looped peptides) [3]: 0.3; Binding of Control Serum Blood-Bank to Looped peptides [4]: 0.5; Binding of Control serum Blood-bank to linear peptides [4]: 0.6; Binding of Control serum LUMC to linear peptides [4]: 0.6; Binding of Control serum LUMC to looped peptides [4]: 0.6
ASAFFGMSRIGMEVT	0.2	0.3	0.3	0.2	0.2	0.3	0.2	0.1	0.7	0.5	0.7	0.4	0.8	0.3	0.3	0.3	0.7	0.6	0.1	0.2	Binding of a rabbit serum to linear peptides of protein N of SARS-CoV Urbani (Rabbit serum linear peptides) [3]: 0.1; Binding of a rabbit serum to looped/cyclic peptides of protein N of SARS-CoV Urbani (Rabbit serum looped peptides) [3]: 0.5; Control Serum Blood-Bank Looped peptides [4]: 0.5; Control serum Blood-bank linear peptides [4]: 0.7; Control serum LUMC linear peptides [4]: 0.7; Control serum LUMC looped peptides [4]: 0.4
ASLPYGANKEGIVWV	0.2	0.4	0.1	0.3	0.2	0.7	0.1	0.3	0.6	1.0	0.5	1.0	0.4	0.6	0.1	0.8	0.5	0.3	0.1	0.3	Binding of a rabbit serum to linear peptides of protein N of SARS-CoV Urbani (Rabbit serum linear peptides) [3]: 0.2; Binding of a rabbit serum to looped/cyclic peptides of protein N of SARS-CoV Urbani (Rabbit serum looped peptides) [3]: 0.2; Binding of Control Serum Blood-Bank to Looped peptides [4]: 0.9; Binding of Control serum Blood-bank to linear peptides [4]: 0.7; Binding of Control serum LUMC to linear peptides [4]: 0.6; Binding of Control serum LUMC to looped peptides [4]: 0.8

Source: patent US20070128217A1 (priority 2003, published 2007)
